Columns and labels:
[1] = assay type: physicochemical
Experimental: A rifaximin amount corresponding to 200 mg was dissolved in 10 ml of a solution formed by ethanol/water 1:4 (v/v), left for two days under stirring at room temperature.
Rifaximin solubility was determined by wavelength spectrophotometry at wavelength 276 nm with a rifaximin calibration curve.

[2] = WO 2005/044823; cited from earlier work

Row | Rifaximin solubility [1] | solubility of rifaximin [1] | SMILES | water solubility [2]
1 | 48 µg/mL | 48 µg/mL | CO[C@H]1/C=C/O[C@@]2(C)Oc3c(C)c(O)c4c(O)c(c5c(nc6cc(C)ccn65)c4c3C2=O)NC(=O)/C(C)=C\C=C\[C@H](C)[C@H](O)[C@@H](C)[C@@H](O)[C@@H](C)[C@H](OC(C)=O)[C@@H]1C [Rifaximin] | 
2 |  |  | CO[C@H]1/C=C/O[C@@]2(C)Oc3c(C)c(O)c4c(O)c(c5c(nc6cc(C)ccn65)c4c3C2=O)NC(=O)/C(C)=C\C=C\[C@H](C)[C@H](O)[C@@H](C)[C@@H](O)[C@@H](C)[C@H](OC(C)=O)[C@@H]1C [rifaximin polymorph α] | substantially insoluble
